What follows are molecules tested on HuH7 cells (assay: MTT antiproliferative (growth inhibition) assay on HuH7 cells). Conditions: Homo sapiens, Huh-7, MTT, 72 h incubation, mean and SD of 3 or more independent determinations (Tables 1-8), read-out: IC 50.
Assay type: cell-based, human
Source text: MTT was purchased from DUCHEFA Biochemie ([…]). Sunitinib, and sodium dodecyl sulfate, bovine serum albuminwere obtained from Sigma Aldrich (Singapore). Sorafenib was purchase from Ontario Chem. Fetal bovine serum (FBS) was obtained from Invitrogen. Human hepatocellular carcinoma cells (HuH-7 and Hep G2), and human diploid fibroblast strain (IMR 90). HuH7 was obtained as gifts from Dr Ho Han Kiat, Department of Pharmacy, NUS. IMR90 and Hep G2 were purchased from American Type Culture Collection (ATCC). HuH-7 cells were cultured in DMEM (Dulbecco's Modified Eagle Medium, high glucose) with 10% v/v fetal bovine serum (FBS), 100 mg/L penicillin G and 100 mg/L streptomycin. IMR 90 cell were cultured in EMEM (Eagle's Minimum Essential Medium), with 10% v/v FBS and 100 mg/L penicillin G and 100 mg/L streptomycin. The cells were sub-cultured when HuH7 or Hep G2 reached a density of 70-80×10^5 cell/T75 flask, and IMR 90 reached 20×10^5 cell/T75 flask. Cells were used within 2-10 passages for viability experiments.
The anti-proliferative activity of the test compounds were determined by the MTT assay. An aliquot (200 μL, 3×10^4 cells/mL for HuH7, 3.75×10^4 cells/mL for Hep G2, and 2×10^4 cells/mL for IMR 90) of medium was added to each well of the microtitre plate. […] The existing medium was removed from each well and replaced by fresh medium (200 μL) containing a known concentration of test compound. The final concentration of DMSO in each well was maintained at 0.5% v/v. (1% v/v was also utilized if the compounds were not soluble) The test compounds were incubated with the cells for another 72 h at 37 deg C., 5% CO2. The medium was then removed from the well and replaced with FBS free medium (200 μL) and MTT (50 μL of 2 mg/mL solution in phosphate buffer saline, pH 7.4). The phosphate buffer saline comprises 10 mM of potassium phosphate and 137 mM sodium chloride. After incubation (3 h) at 37 deg C., 5% CO2, the supernatant was removed and a solution of 200 μL DMSO and 25 μL Sorenson buffer (0.1 M glycine, 0.1 M sodium chloride, adjusted to pH 10.5 with 0.1 M sodium hydroxide) was added to dissolve the formazan crystals in each well. Vehicle control were cells grown in 1% v/v DMSO/Medium for 72 h, 37 deg C., 5% CO2 while blank controls were wells that contained only 200 μL DMSO and 25 μL Sorenson buffer. Absorbances were measured at 570 nm on a microplate reader (Tecan, Infinite 200). The viability of cells at a given concentration of test compound was determined from the expression:
[formula] where abs_compound=absorbance of wells containing cells and test compound, abs_vehicle (Not the same as above. Change to abs_vehicle)=absorbance of vehicle control and abs_blank=absorbance of blank control.
Each concentration of test compound was evaluated at least 3 times on separate occasions, and two different stock solution were used. The IC50 value (concentration that inhibited 50% of cell growth) was determined from the sigmoidal curve obtained by plotting percentage viability versus logarithmic concentration of test compound using GraphPad Prism 5 (San Diego, USA).

Structure (SMILES)	IC50 [µM]
O=C1Nc2cc(Cl)ccc2C1=Cc1ccc(F)c(F)c1 [Compound 1-12, (E)-6-Chloro-3-(3,4-difluoro-benzylidene) 1,3-dihydro-indolin-2-one]	16.7 ± 3.4
O=C1Nc2cc(Cl)ccc2/C1=C\c1cccc(OC(F)(F)F)c1 [Compound 1-14, (E)-6-Chloro-3-(3-trifluoromethoxyl-benzylidene)-1,3-dihydro-indol-2-one]	5.06 ± 0.74
O=C1Nc2cc(Cl)ccc2/C1=C\c1ccccc1 [Compound 1-1, (E)-3-Benzylidene-6-chloro-1,3-dihydro-indol-2-one]	17.5 ± 3.54
O=C1Nc2ccc(Cl)cc2/C1=C\c1ccc(F)c(F)c1 [Compound 2-9, (E)-5-Chloro-3-(3,4-difluoro-benzylidene)-1,3-dihydro-indol-2-one]	11.4 ± 1.45
O=C1Nc2ccc(Cl)cc2/C1=C\c1cccc(F)c1 [Compound 2-3, (E)-5-Chloro-3-(3-fluoro-benzylidene)-1,3-dihydro-indol-2-one]	15.1 ± 2.91
O=C1Nc2ccc(Cl)cc2/C1=C\c1ccccc1F [Compound 2-2, (E)-5-Chloro-3-(2-fluoro-benzylidene)-1,3-dihydro-indol-2-one]	> 30
COc1cccc(C=C2C(=O)Nc3ccc(Cl)cc32)c1 [Compound 2-5, (E)-5-Chloro-3-(3-methoxybenzylidene)-dihydro-indol-2-one]	> 30
O=C1Nc2ccc(Cl)cc2/C1=C\c1ccccc1C(F)(F)F [Compound 2-6, (E)-5-Chloro-3-(2-trifluoromethylbenzylidene)-1,3-dihydro-indol-2-one]	> 30
CNS(=O)(=O)c1cccc(/C=C2/C(=O)Nc3ccc(Cl)cc32)c1 [Compound 2-14, (E)-3-(5-Chloro-2-oxo-1,2-dihydro-indol-3-ylidenemethyl)-N-methyl-benzenesulphonamide]	3.13 ± 0.07
O=C1Nc2ccc(Cl)cc2/C1=C\c1cccc(OC(F)(F)F)c1 [Compound 2-10, (E)-5-Chloro-3-(3-trifluoromethoxyl-benzylidene)-1,3-dihydro-indol-2-one]	3.83 ± 0.25
O=C1Nc2cc(Cl)ccc2C1=Cc1ccc(OC(F)(F)F)cc1 [Compound 1-15, (E)-6-Chloro-3-(4-trifluoromethoxyl-benzylidene)-1,3-dihydro-indol-20-one]	10.1 ± 1.73

Other lines, results leading:

IC50 [µM]	Structure (SMILES)
21.4 ± 1.73	O=C1Nc2ccc(F)cc2/C1=C\c1ccccc1 [Compound 4-1, (E)-3-Benzylidene-5-fluoro-1,3-dihydro-indol-2-one]
0.71 ± 0.07	COc1ccc2c(c1)NC(=O)/C2=C/c1cccc(F)c1 [Compound 5-3, (E)-3-(3-Fluoro-benzylidene)-6-methoxy-1,3-dihydro-indol-2-one]
0.94 ± 0.19	COc1ccc2c(c1)NC(=O)/C2=C/c1ccccc1 [Compound 5-1, (E)-3-Benzylidene-6-methoxy-1,3-dihydro-indol-2-one]
> 30	O=C1Nc2cc(F)ccc2/C1=C\c1ccccc1C(F)(F)F [Compound 3-5, (E)-6-Fluoro-3-(2-trifluoromethyl-benzylidene)-1,3-dihydro-indol-2-one]
5.56 ± 0.06	O=C1Nc2ccccc2/C1=C\c1cccc(C(F)(F)F)c1 [Compound 8-1, (E) 3-(3-Trifluoromethyl-benzylidene)-1,3-dihydro-indol-2-one]
> 30	O=C1Nc2ccc(F)c(F)c2/C1=C/c1ccc(C(F)(F)F)cc1 [Compound 6-7, (Z)-4,5-Difluoro-3-(4-trifluoromethyl-benzylidene)-1,3-dihydro-indol-2-one]
23.13 ± 0.21	O=C1Nc2ccc(F)cc2C1=Nc1cccc(C(F)(F)F)c1 [Compound 8-7, (E/Z)-5-Fluoro-3-(3-trifluoromethyl-phenylimino)-1,3-dihydro-indol-2-one]
13.2 ± 0.42	O=C1Nc2ccc(F)cc2/C1=C\c1ccc(F)cc1 [Compound 4-4, (E)-5-Fluoro-3-(4-fluoro-benzylidene)-1,3-dihydro-indol-2-one]
13.9 ± 2.03	CS(=O)(=O)c1cccc(C=C2C(=O)Nc3ccc(F)c(F)c32)c1 (mixture of isomers) [Compound 6-9, (E/Z)-4,5-Difluoro-3-(3-methanesulfonylbenzylidene)-1,3-dihydro-indol-2-one]

From patent US8877946B2, “Benzylidene-indolinone compounds and their medical use” (National University of Singapore, priority 2011, dated 2014)
